“And” between values parts separate entries of the source, which are not always exact repeats. Identical values can stand only once. Like-named read-outs stand apart in the source and are kept apart here.
Assays:
[1] = target: T1, L. amazonensis arginase (L-ARG) (Leishmania amazonensis, UniProt O96394); test: Recombinant L. amazonensis arginase (L-ARG) inhibition, IC50; format: biochemical; details: for IC50: mean ± SEM; for fold decrease of enzyme inhibition relative to compound 4: compared with compound 4
Description: (§1) Recombinant L-ARG was expressed and purified as previously described. A stock solution of 70 mM was prepared in DMSO and was stored at −20 °C for each compound just before the experiment. The concentration that inhibited 50% of the catalytic activity of the enzyme (IC50) was determined using an inhibitor concentration from 200 μM to 0.05 μM; the concentrations were obtained via a serial dilution in water (1:4). The kinetics were determined using three concentrations of the substrate and three concentrations of inhibitor, as previously described. Two independent experiments were performed in triplicate with a coefficient of nonlinear regression R^2 ≥ 0.85. The sigmoidal model (log IC50) was used to determine the IC50 using GraphPad Prism 7 software for Windows (San Diego, CA, USA).

[2] = target: T1, L. amazonensis arginase (L-ARG); test: Kinetics of arginase inhibition (Dixon and Cornish-Bowden plots); format: biochemical; details: for Mechanism of Inhibition: Dixon and Cornish-Bowden plots; for Ki: Dixon plots, L-arginine 100, 50 and 25 mM
Description: The enzyme kinetics were performed to determine the mechanism of inhibition and the dissociation constant (Ki) of the compounds via the simultaneous analysis of the Dixon and Cornish-Bowden plots. The Ki inhibition constants (complex EI), which refer to the equilibriums established between the […] in the presence of an inhibitor (I), were determined (Table 1).
as §1
Figure 1 Kinetics of the arginase inhibition by compounds 2–4, 7, and 9. The mechanism of action was determined by an analysis of the Dixon (A) and Cornish-Bowden plots (B); the Ki constant was measured using Dixon plots by calculating the X values at the intersection point of the lines. […] Each drawn point represents the mean of three independent experiments (n = 3) performed in duplicate.

[3] = tested on: promastigotes and amastigotes of L. amazonensis; details: cited from earlier work
[4] = target: T1, L. amazonensis arginase (L-ARG); details: cited from earlier work
L. amazonensis = tested on: L. amazonensis; design: method as in PMID 24906989; details: BALB/c mice, cutaneous leishmaniasis; cited from earlier work
[5] = recombinant L-ARG, read-out: IC50

Compound: O=C(CCc1ccc(O)c(O)c1)O[C@H](Cc1ccc(O)c(O)c1)C(=O)O [Compound 3]
- IC50 [1, 5]: 3 ± 0.2 µM
- Mechanism of Inhibition [2]: Noncompetitive
- Ki [2]: 3.9 ± 0.4 µM

Compound: O=C(O)CC(OC(=O)/C=C/c1ccc(O)c(O)c1)C(=O)O (stereo not shown) [Compound 7]
- fold decrease of enzyme inhibition relative to compound 4 [1]: approximately 20 times
- IC50 [1, 5]: 36.2 µM and 36 µM
- Mechanism of Inhibition [2]: Noncompetitive
- Ki [2]: 74 ± 8 µM

Compound: O=C(CCc1ccc(O)cc1)O[C@H](Cc1ccc(O)cc1)C(=O)O [Compound 5]
- fold decrease of enzyme inhibition relative to compound 4 [1]: at least 100 times
- L-ARG inhibition (in words) ([1]; recombinant L-ARG): weak inhibition
- IC50 [1, 5]: > 200 µM

Compound: O=C(/C=C/c1ccc(O)c(O)c1)O[C@H](Cc1ccc(O)c(O)c1)C(=O)O [rosmarinic acid]
- activity against the promastigotes and amastigotes of L. amazonensis [3]: active
- L-ARG inhibition (in words) [4]: inhibitory profile
- lesion size and parasite burden (L. amazonensis): effective in reducing the lesion size and parasite burden

Compound: COc1cc(/C=C/C(=O)O)ccc1O [ferulic acid]
- activity against the promastigotes and amastigotes of L. amazonensis [3]: active
- lesion size and parasite burden (L. amazonensis): effective in reducing the lesion size and parasite burden

Compound: O=C(CCc1ccc(O)cc1)Nc1cc(Cl)ccc1C(=O)O [Compound 10]
- IC50 ([1]; recombinant L-ARG): Inactive

Compound: O=C(O)/C=C/c1ccc(O)c(O)c1 [caffeic acid]
- activity against the promastigotes and amastigotes of L. amazonensis [3]: active
- L-ARG inhibition (in words) [4]: inhibitory profile
- lesion size and parasite burden (L. amazonensis): effective in reducing the lesion size and parasite burden

Compound: O=C(CCc1ccc(O)c(O)c1)O[C@H](Cc1ccc(O)cc1)C(=O)O [Compound 4]
- IC50 [1, 5]: 1.9 ± 0.7 µM
- Mechanism of Inhibition [2]: Noncompetitive
- Ki [2]: 2 ± 0.6 µM

Compound: O=C(CCc1ccc(O)c(O)c1)O[C@H](Cc1ccccc1)C(=O)O [Compound 2]
- IC50 [1, 5]: 2.8 ± 0.9 µM
- Mechanism of Inhibition [2]: Noncompetitive
- Ki [2]: 5.7 ± 0.7 µM

Compound: O=C(/C=C/c1ccc(O)c(O)c1)Nc1cc(F)c(F)cc1C(=O)O [Compound 9]
- IC50 [1, 5]: 5.5 ± 0.5 µM
- Mechanism of Inhibition [2]: Competitive
- Ki [2]: 4.6 ± 1.7 µM

Compound: C[C@@H]1O[C@@H](O[C@@H]2[C@@H](O)[C@H](OCCc3ccc(O)c(O)c3)O[C@H](CO)[C@H]2OC(=O)/C=C/c2ccc(O)c(O)c2)[C@H](O)[C@H](O)[C@H]1O [verbascoside]
- activity against promastigote and intracellular amastigotes of the parasite [3]: active
- L-ARG inhibition (in words) [4]: inhibits

Compound: O=C(/C=C/c1ccc(O)cc1)Nc1cc(Cl)ccc1C(=O)O [Compound 8]
- IC50 ([1]; recombinant L-ARG): Inactive

Compound: O=C(/C=C/c1ccc(O)cc1)O[C@H](Cc1ccccc1)C(=O)O [Compound 1]
- IC50 ([1]; recombinant L-ARG): Inactive

Compound: O=C(/C=C/c1ccc(O)c(O)c1)O[C@@H]1C[C@](O)(C(=O)O)C[C@@H](O)[C@H]1O [chlorogenic acid]
- activity against the promastigotes and amastigotes of L. amazonensis [3]: active

Compound: O=C(CCc1ccc(O)cc1)O[C@H](Cc1ccccc1)C(=O)O [Compound 6]
- IC50 ([1]; recombinant L-ARG): Inactive
